One compound from patent US10023557B2 (LifeSci Pharmaceuticals, Inc., priority 2015, dated 2018) can be followed below.

pEC50, pIC50: −log10 of the molar value.

Assay [1] has as its target human plasma kallikrein (Homo sapiens (Human), UniProt P03952). Put plainly: In vitro enzyme inhibition of human plasma kallikrein (PFR-AMC cleavage). Type of assay: biochemical. The note with it: Pro-Phe-Arg-AMC substrate, 37° C., read-out: hPK IC50. The procedure, abridged:
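Human plasma kallikrein and compound, diluted in 50 mM Tris-HCl pH 7.5, 150 mM NaCl, 0.01% Triton X-100, preincubated 5 min at 37 °C before PFR-AMC was added.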

The target in assay [2] is cellular kallikrein activity (Homo sapiens (Human), UniProt P03952). Put plainly: In vitro cellular assay (contact assay): kallikrein activity in ellagic acid-activated human plasma, Z-FR-2-AMC substrate. As to conditions: human plasma activated with ellagic acid, 37° C. Type of assay: biochemical.
Sequence of cellular kallikrein activity (P03952 391-638): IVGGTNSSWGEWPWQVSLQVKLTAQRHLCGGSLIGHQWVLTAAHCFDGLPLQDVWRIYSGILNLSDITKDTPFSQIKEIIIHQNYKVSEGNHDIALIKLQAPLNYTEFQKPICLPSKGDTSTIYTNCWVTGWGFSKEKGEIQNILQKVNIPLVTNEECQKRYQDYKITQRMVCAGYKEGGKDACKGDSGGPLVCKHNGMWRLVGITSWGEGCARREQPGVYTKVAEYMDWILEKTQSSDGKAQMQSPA
Sequence of cellular kallikrein activity (P03952 20-390 partner): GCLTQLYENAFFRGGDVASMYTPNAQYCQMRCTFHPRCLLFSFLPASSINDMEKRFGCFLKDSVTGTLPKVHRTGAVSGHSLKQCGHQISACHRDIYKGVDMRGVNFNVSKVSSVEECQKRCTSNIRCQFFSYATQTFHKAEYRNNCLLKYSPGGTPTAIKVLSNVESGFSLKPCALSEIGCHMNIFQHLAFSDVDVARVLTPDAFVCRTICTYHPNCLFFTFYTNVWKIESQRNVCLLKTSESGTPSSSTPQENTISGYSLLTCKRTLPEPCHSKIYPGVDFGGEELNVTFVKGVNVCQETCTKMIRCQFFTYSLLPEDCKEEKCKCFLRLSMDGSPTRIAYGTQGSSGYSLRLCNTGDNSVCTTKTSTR

Sequence of human plasma kallikrein (P03952 391-638): as the sequence (P03952 391-638) above
Sequence of human plasma kallikrein (P03952 20-390 partner): as the sequence (P03952 20-390 partner) above

Usually pIC50 stands for the IC50 on a negative log10 scale, so that one unit is a factor of ten. A word on the pEC50: it is the negative decadic logarithm of the EC50, by convention in mol/L. Low readings indicate a large EC50, high ones a small EC50. As to `O=C(NCc1n[nH]c2ccc(Cl)cc12)c1ccnc(Cc2ccc3ncc(C4CC4)cc3c2)c1` [Example 249, N-((5-chloro-1H-indazol-3-yl)methyl)-2-((3-cyclopropylquinolin-6-yl)methyl)isonicotinamide], the pIC50 in assay [1] was over 7.00. The same compound had a negative logarithm of the EC50 (pEC50) in assay [2] of 6.00 to 7.00.
